System: A2780 ovarian cancer cell line
Test: Cytotoxicity of Ru compounds on A2780 ovarian cancer cell line (cell count, Coulter counter)
Format: cell-based
Conditions: A2780 cells; 24 hours drug exposure, further 3 days growth, cells counted
Protocol: 1. Protocol for Testing Ru Compounds The compounds are tested on 24-well trays. Cells growing in a flask are harvested just before they become confluent, counted using a haemocytometer and diluted down with media to a concentration of 1×10^4 cells per ml. The cells are then seeded in the 24-well trays at a density of 1×10^4 cells per well (i.e. 1 ml of the diluted cell suspension is added to each well). The cells are then left to plate down and grow for 72 hours before adding the compounds of the invention. The Ru complexes are weighed out and made up to a concentration of 1 mg/ml with deionised water and 0.5% w/w DMSO. The appropriate volume of the Ru solution is added to 5 ml of media to make it up to a concentration of 100 μM for each drug. This 100 μM solution is then serially diluted to make up the 10 μM, 1 μM and 0.1 μM solutions. The media is removed from the cells and replaced with 1 ml of the media dosed with drug. Each concentration is done in duplicate. A set of control wells are left on each plate, containing media and 0.5% w/w DMSO without drug. The cells are left exposed to the drugs for 24 hours and then washed with phosphate buffered saline before fresh media is added. They are allowed to grow on for a further 3 days before being counted using a Coulter counter. Preparing Cells for Counting: Media is removed and 1 ml of PBS is added to the cells. 250 μl of trypsin is added and cells left in incubator for a few minutes to allow the monolayers to detach. Once trypsinised, 250 μl of media is added to each well to neutralise the trypsin. 200 μl of this suspension is added to 10 ml of NaCl for counting. Using the above protocol, a number of compounds of the invention were tested on A2780 ovarian cancer cell line. […]

Compound	IC50
CC(=O)C=C(C)[O][Ru][Cl].Cc1ccc(C(C)C)cc1 [Example 1, [(η^6-p-cymene)RuCl(H3CCOCHCOCH3-O,O)]]	19 µM
Cc1ccc(C(C)C)cc1.O=C([CH-]C(=O)C(F)(F)F)C(F)(F)F.[Cl-].[Ru+2] [Example 2, [(η^6-p-cymene)RuCl(F3CCOCHCOCF3—O,O)]]	> 100 µM
Cc1ccc(C(C)C)cc1.O=C([CH-]C(=O)c1ccccc1)c1ccccc1.[Cl-].[Ru+2] [Example 3, [(η^6-p-cymene)RuCl(C6H5COCHCOC6H5—O,O)]]	11 µM
CC(C)(C)C(=O)[CH-]C(=O)C(C)(C)C.Cc1ccc(C(C)C)cc1.[Cl-].[Ru+2] [Example 4, [(η^6-p-cymene)RuCl((CH3)3CCOCHCOC(CH3)3—O,O)]]	14 µM
CC(=O)C=C(C)[O][Ru][Cl].c1ccc(-c2ccccc2)cc1 [Example 5, [(η^6—C6H5C6H5RuCl(H3CCOCHCOCH3—O,O)]]	21 µM
CC#N.CC(=O)C=C(C)[O][Ru+].Cc1ccc(C(C)C)cc1.F[B-](F)(F)F [Example 6, [(η^6-p-cymene)Ru(CH3CN)(H3CCOCHCOCH3—O,O)]BF4]	22 µM

System: guanosine and adenosine
Test: 1H NMR study of binding to DNA bases (guanosine/adenosine adduct formation)
Conditions: 500 MHz 1H NMR; guanosine:adenosine:compound mole ratio 1.3:1:1 in 10% D2O/90% H2O
Description: The ability of the compounds of the invention to bind to DNA bases was studied by nmr and the results are illustrated in the accompanying figures in which:
FIG. 1 is a 500 MHz ^1H NMR spectrum of a mixture of guanosine:adenosine:compound of Example 1 in the mole ratio 1.3:1:1, respectively, in 10% D2O/90% H2O.
In FIG. 2, the region from 5.1 to 5.4 ppm (right) corresponds to the central CH on the acac ligand. Peaks a and b correspond to the adenosine adducts, peak c to the guanosine adduct. In the region 7.9-8.6 ppm (left), peaks for the H2 and H8 protons of adenosine and H8 protons of guanosine appear. […] The atom labelling scheme for the nucleobase part (A and G) of the nucleosides is shown.

Compound	adduct formation with adenosine and guanosine (binding to DNA bases)
CC(=O)C=C(C)[O][Ru][Cl].Cc1ccc(C(C)C)cc1 [Example 1, [(η^6-p-cymene)RuCl(H3CCOCHCOCH3-O,O)]]	both adenosine and guanosine form adducts
